Test results taken from patent publication US20250144050A1, “AMINOTHIOL-CONJUGATES, COMPOSITIONS, AND METHODS OF USE THEREOF” (THE BURLINGTON HC RESEARCH GROUP, INC., priority 2021, published 2025).

Key:
Storage stability = type: physicochemical
Protocol: (§1) The solubility of 4SP65 was tested in de-ionized water, PBS, DMSO, and RPMI or DMEM base medium with and without FBS. […] The difference in the starting weight of drug placed into solvent minus the weight of the residue after drying on a vacuum pump was considered to represent the amount of drug that went into solution. The amount of drug that was dissolved at a given time ranged from 40 to 61%, averaging 49.7±8.1% (SD). The weight of the 4SP65 in solution was then used for diluting the drug to concentrations of 200 or 400 μM in supplemented RPMI or DMEM/F12 medium for routine treatment of cells. The dried residue was not used in the in vitro drug efficacy studies. […] However, unintended topical entanglements between polymer chains of multi-arm PEG-thiol molecules without disulfide formation have been reported (Tang and Olsen, “Controlling Topological Entanglement in Engineered Protein Hydrogels with a Variety of Thiol Coupling Chemistries,” Front. Chem. 2:23 (2014), which is hereby incorporated by reference in its entirety). Aliquots of 4SP65 dissolved in FBS enriched medium has remained stable for >6 months while remnants of the original viscous polymer have maintained stability without any apparent loss of activity when stored for 60 months at −20° C.
The boc deprotected aminothiol conjugated to m-PEG6-thiol was dried on a vacuum pump overnight to yield a viscous oil that on analysis gave rise to spectra corresponding to 1LP65 as a di-trifluroacetic acid salt at a MW of 672.87 Da (FIG. 15), or a MW of 483 once dissolved in solution. As such, 1LP65 is soluble 100% DMSO or aqueous solution. However, the bulk of the product was dissolved at 40 mM in DMSO and stored in aliquots at −80° C. for future use once by further dilution in DMSO and then final dilution in medium for treatment of normal human epithelium and human cancer cell lines at working solutions of 4 mM or 400 μM drug. […]

Vero cells = test: Dose-response metrics in immortalized, non-tumorigenic cells; type: cell-based
Protocol: To determine potential cytostatic or cytocidal effects of BRG prodrugs in immortalized, non-tumorigenic cells, Vero, HEK-293t, LP9, and HPM3 cells were exposed to 4SP65 while only Vero cells also were treated with 1LP65. […] Comparisons across other dose-response metrics could not be made because such levels of effects were not induced in NHMECs exposed to 4SP65. […] Since cytostatic and cytolytic effects at the TGI and LC50/99 levels were induced in Vero cells exposed to 1LP65 but not in NHMECs, there is a significant difference in the effects of 1LP65 in Vero cells compared to NHMECs, but p values based upon t-test evaluations cannot be defined due to lack of numerical data.

MDA-MB-231 cells = test: CyQUANT cell viability assay, 48-hour exposure; type: cell-based, human
Protocol: After drug treatments, fluorescence readings from 96-well plates were obtained using the CyQUANT dye and compared to standard curves for each cell line to determine cell viability. […] Trypan blue exclusion was used to estimate cell numbers in a few pilot experiments and was thereafter applied to confirm cell death.
A series of experiments was conducted to assess the relative efficacy of 4SP65, 1LP65, and amifostine as single agents in the same human cancer cell lines. First, the effectiveness of 4SP65 was tested against 15 cancer cell lines derived from seven tissues. […] The effectiveness of 0 to ≤500 μM amifostine was tested in sets of cancer cell lines reported to have either medium, high, or no expression of alkaline phosphatase.
Trans. R Soc. Lond. […] Using cell numbers based on fluorescence measurements and standard curves [time zero, (Tz), control growth, (C), and test growth in the presence of drug at five or more concentration levels (Ti)], the percentage growth was calculated at each drug concentration level. The percentage of growth inhibition was calculated as follows:
The LC50/99 was calculated using Equation 2=−50 and Eq. 2=−99, respectively. […] For NHMECs, the relationships between drug exposure levels and fluorescence units were used to define dose-response metrics. The selectivity index (SI) values for individual drug treatments were calculated as IC50 levels in NHMECs divided by the IC50 values in cancer cell lines.

Solubility testing = type: physicochemical
Protocol: as §1
The boc deprotected aminothiol conjugated to m-PEG6-thiol was dried on a vacuum pump overnight to yield a viscous oil that on analysis gave rise to spectra corresponding to 1LP65 as a di-trifluroacetic acid salt at a MW of 672.87 Da (FIG. 15), or a MW of 483 once dissolved in solution. As such, 1LP65 is soluble 100% DMSO or aqueous solution. However, the bulk of the product was dissolved at 40 mM in DMSO and stored in aliquots at −80° C. for future use once by further dilution in DMSO and then final dilution in medium for treatment of normal human epithelium and human cancer cell lines at working solutions of 4 mM or 400 μM drug. 1LP65 has maintained stability for six months in frozen aliquots but should be stable in DMSO at −80° C. for two to three years based upon recommended storage conditions for cystamine dihydrochloride (Selleck Chemical product information), an analogous 225 Da compound with a disulfide bond and amine groups like 1LP65.

Molecule	time stability maintained (Storage stability; frozen aliquots, 40 mM in DMSO at −80° C.)	GI50 (Vero cells; Chlorocebus sabaeus, Vero) [µM]	LC99 (Vero cells; VERO) [µM]	TGI (Vero cells; VERO) [µM]	GI50 (MDA-MB-231 cells; Homo sapiens, MDA-MB-231 cells, 48 hours) [µM]	solubility (Solubility testing; 100% DMSO or aqueous solution)	time remained stable (Storage stability; dissolved in FBS enriched medium) [months]	time stability maintained without apparent loss of activity (Storage stability; original viscous polymer stored at −20° C.) [months]	CC50 (Vero cells) [µM]	GI50 (Vero cells; VERO) [µM]	selectivity index (MDA-MB-231 cells; IC50 of 76 in most sensitive NHMEC strain / IC50 in MDA-MB-231)	highest level that could be tested based upon maximum solubility in aqueous medium (Solubility testing; aqueous medium) [µM]	amount of drug that was dissolved, averaging (SD) (Solubility testing; aqueous solvents/medium) [%]	solubility (Solubility testing; de-ionized water, PBS, DMSO, RPMI or DMEM base medium with and without FBS)	concentration above which a hydrogel forms (Solubility testing; in medium)
COCCOCCOCCOCCOCCOCCSSCCNCCCN [1LP65, m-PEG6-S-S-WR1065]	six	46.6 ± 2.6	183.4 ± 6.2	82.8 ± 2.9	41.8	soluble									
4-star PEG-S-S-WR1065 [4SP65]			14.0 ± 9.9	6.4 ± 2.6			> 6	60	11.6 ± 6.3	2.9 ± 1.4	> 16	150	49.7±8.1	partially soluble in all media evaluated except DMSO	above 300 micromolar
